Results reported in patent US8367687B2, “Pyrazole derivatives” (Novartis AG, priority 2007, dated 2013).
pIC50: −log10 of the molar value. Where two headings read alike, the source gives them in different places.

Columns and labels:
[1] = molecular target: CDK2 cyA (Homo sapiens, UniProt P24941); assay: CDK2 cyA IMAP; type: biochemical
[2] = molecular target: CDK4 (Homo sapiens, UniProt P11802); assay: CDK4 HTRF; type: biochemical
[3] = test system: p-pRb/S780; assay: p-pRb/S780 ELISA Cellular Assay (CDK4 ELISA assay); type: cell-based; settings: cells treated for 24 hrs
Description: Biological Activity p-pRb/S780 ELISA Cellular Assay
Maxisorp plates (Nunc 442404) are coated with 50 ul of 1 ug/mL total phospholated Retinoblast Protein (pRb) antibody (4H1 Cell Signaling 9309L) diluted in DPBS (Phosphate Buffered Saline) overnight at 4° C. The next day plates are blocked with Superblock in TBST (Pierce 37535) for one hour to overnight—changing block once during that time. Cells are plated at 50-60% confluency in a 96 well plate (Corning 3585) in 100 uL complete media (media containing fetal bovine serum (Gibco 1600-044), 2 mM L-Glutamine (Gibco 25030), and 1% Penicillin/Streptomycin (Gibco 15140-122) and grown overnight in a humidified chamber at 37° C. and 5% CO2. Compounds (in DMSO) are diluted in media to create a 7 point dilution series of compound with concentrations ranging from 110 uM to 0.027 uM. 10 ul of the diluted compounds are added to the cells, with final concentrations on cells ranging from 10 uM to 0.002 uM. Cells are treated for 24 hrs in a humidified chamber at 37° C. and 5% CO2. Following compound incubation, cells are lysed with 40 uL/well lysis buffer (50 mM Tris-HCL pH 7.5 (Invitrogen 15567-027), 120 mM NaCl (Promega V4221), 1 mM EDTA (Gibco 15575-038), 6 mM EGTA (Fisher 02783-100), 1% Nonidet P40 (Fluka R02771). Plates are placed on Titerplate shaker (Labline model 4625) for 5 minutes at 4° C. to lyse cells. After lysis, 10 ul of cell lysate and 50 ul 1×PBS/10% Superblock (Gibco 10010 and Pierce 37535) is added to each well of the precoated and blocked Maxisorp plate and allowed to bind at room temperature for 2 hours on Oribtron Rotator II (Boekel Industries Model 260250). Plates are then washed 3× with 1×TBST (Teknova T9201) using Biotek platewasher equipped with a Biostack. The final wash is not aspirated. The final wash is removed by flicking off and tapping plate on paper towels. ppRbS780 antibody (Cell Signaling 9307L) is diluted 1:1000 in 1×PBS/10% Superblock (Gibco 10010 and Pierce 37535) and 50 ul is added to each well. Plates are then incubated 1 hour on Oribtron Rotator II (Boekel Industries Model 260250). Plates are then washed as previously described. Goat anti-rabbit HRP (Promega W401B) is diluted 1:2500 1×PBS/10% Superblock (Gibco 10010 and Pierce 37535) and 50 ul is added to each well. Plates are then incubated 30 minutes on Oribtron Rotator II. Plates are then washed as previously described. 50 uL Ultra TMB ELISA (Pierce 34028) is then added to each well. Plates are incubated 5-20 minutes until blue color develops. 50 ul 2M Sulfuric acid (Mallinckrodt 2468-46) is then added to each well to stop the reaction. Absorbance at 450 nm for each plate is read on Spectramax Plus (Molecular Devices).

[4] = molecular target: hCDK1/B (Homo sapiens, UniProt P06493); assay: hCDK1/B; type: biochemical
Sequence of hCDK1/B (P06493 whole entry): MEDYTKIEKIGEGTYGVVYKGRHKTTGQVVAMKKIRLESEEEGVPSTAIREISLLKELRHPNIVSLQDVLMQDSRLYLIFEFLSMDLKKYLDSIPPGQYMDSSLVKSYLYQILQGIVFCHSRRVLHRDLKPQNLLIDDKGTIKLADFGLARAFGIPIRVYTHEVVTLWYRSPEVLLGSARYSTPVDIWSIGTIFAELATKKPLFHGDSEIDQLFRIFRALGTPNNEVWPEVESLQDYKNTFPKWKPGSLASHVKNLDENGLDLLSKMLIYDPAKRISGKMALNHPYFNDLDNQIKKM
Sequence of hCDK1/B (P14635 whole entry partner): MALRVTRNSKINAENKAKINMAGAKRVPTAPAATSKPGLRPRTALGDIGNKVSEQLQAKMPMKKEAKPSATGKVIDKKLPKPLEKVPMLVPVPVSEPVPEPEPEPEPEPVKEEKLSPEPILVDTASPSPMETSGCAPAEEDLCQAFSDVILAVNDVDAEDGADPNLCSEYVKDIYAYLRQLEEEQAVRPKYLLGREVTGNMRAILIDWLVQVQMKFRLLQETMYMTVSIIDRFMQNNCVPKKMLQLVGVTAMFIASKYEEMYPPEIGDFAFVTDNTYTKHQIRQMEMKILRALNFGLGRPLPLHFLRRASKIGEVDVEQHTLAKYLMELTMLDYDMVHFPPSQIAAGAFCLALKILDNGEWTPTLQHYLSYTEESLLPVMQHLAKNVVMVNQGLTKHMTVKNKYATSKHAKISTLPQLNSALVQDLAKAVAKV

[5] = Table 2, read-out: CDK2cyA IMAP/ IC50
[6] = Table 2, read-out: CDK4 HTRF/ IC50
[7] = Table 2, read-out: p_pRb Cap EL/ IC50_ppRbinh
[8] = Table 1, read-out: CDK2 cyA IMAP
[9] = Table 1, read-out: CDK4 ELISA assay IC50

Sequence of CDK4 (P11802 whole entry): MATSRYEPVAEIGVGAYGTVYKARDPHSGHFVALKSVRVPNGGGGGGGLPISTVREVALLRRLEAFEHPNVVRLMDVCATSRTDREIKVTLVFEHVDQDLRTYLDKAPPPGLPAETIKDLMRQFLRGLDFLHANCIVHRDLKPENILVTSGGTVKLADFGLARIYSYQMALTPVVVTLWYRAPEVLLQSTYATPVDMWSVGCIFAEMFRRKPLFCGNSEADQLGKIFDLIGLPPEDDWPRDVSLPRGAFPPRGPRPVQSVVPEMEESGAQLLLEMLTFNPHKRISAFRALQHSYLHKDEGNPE
Sequence of CDK4 (P24385 whole entry partner): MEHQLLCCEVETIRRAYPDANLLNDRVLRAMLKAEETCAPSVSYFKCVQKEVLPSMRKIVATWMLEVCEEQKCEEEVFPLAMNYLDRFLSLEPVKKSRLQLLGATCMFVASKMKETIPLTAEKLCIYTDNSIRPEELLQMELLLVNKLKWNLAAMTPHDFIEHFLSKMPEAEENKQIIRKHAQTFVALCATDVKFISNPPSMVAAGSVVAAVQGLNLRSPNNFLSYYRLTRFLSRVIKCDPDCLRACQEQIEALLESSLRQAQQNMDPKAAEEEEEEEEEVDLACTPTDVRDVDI

SMILES | pIC50 [1, 5] | pIC50 [2, 6] | pIC50 [3, 7] | pIC50 ([4]; Table 2) | pIC50 [1, 8] | pIC50 ([2]; Table 1, read-out: CDK4 HTRF) | pIC50 [3, 9] | pIC50 ([4]; Table 1)
Cc1n[nH]cc1-c1ccnc(NCCOc2ccccc2)n1 [Example 98] | > 4.82 | > 5.30 | > 4.82 | > 4.82 |  |  |  | 
Cc1cc(C)cc(CNc2nccc(-c3c[nH]nc3C)n2)c1 [Example 134] | ≤ 4.82 | > 5.30 | > 4.82 | ≤ 4.82 |  |  |  | 
Cc1n[nH]cc1-c1ccnc(NCC2CC2)n1 [Example 124] | > 5.00 | > 5.30 | > 4.82 | > 5.00 |  |  |  | 
CC(C)c1[nH]ncc1-c1ccnc(NCCCN(C)C)c1 [Example 16] |  |  |  |  | ≤ 4.82 | > 5.30 | > 4.82 | ≤ 4.82
CCN(CC)CCNc1nccc(-c2c[nH]nc2C(C)C)n1 [Example 144] | ≤ 4.82 | > 5.30 | > 4.82 | ≤ 4.82 |  |  |  | 
CC(C)c1[nH]ncc1-c1ccnc(NCC2CCNCC2)c1 [Example 47] |  |  |  |  | ≤ 4.82 | > 5.00 | > 4.82 | ≤ 4.82
Cc1ccccc1CNc1cc(-c2cn[nH]c2C2CCCCCC2)ccn1 [Example 66] |  |  |  |  | > 5.00 | > 5.30 | > 4.82 | > 5.00
Cc1n[nH]cc1-c1ccnc(NC2CCCN(C(=O)OC(C)(C)C)C2)n1 (stereo not drawn) [Example 115] | ≤ 4.82 | > 5.00 | > 4.82 | ≤ 4.82 |  |  |  | 
Cc1n[nH]cc1-c1ccnc(NCCCN2CCCC2)n1 [Example 128] | ≤ 4.82 | > 4.82 | > 4.82 | ≤ 4.82 |  |  |  | 
CC(C)c1[nH]ncc1-c1ccnc(Nc2ccccc2)c1 [Example 48] |  |  |  |  | > 7.30 | > 7.00 | > 6.00 | > 7.00
CC(C)c1n[nH]cc1-c1ccnc(NC2CCc3ccccc32)n1 (stereo not drawn) [Example 174] | > 6.00 | > 7.30 | > 5.30 | > 6.00 |  |  |  | 
Cc1n[nH]cc1-c1ccnc(NCc2cccnc2)n1 [Example 127] | > 5.00 | > 5.00 | > 4.82 | > 4.82 |  |  |  | 
CC(C)c1n[nH]cc1-c1ccnc(NC2CCc3cc(Cl)ccc32)n1 (stereo not drawn) [Example 190] | > 6.30 | > 6.30 | > 5.30 | > 5.30 |  |  |  | 
Cc1n[nH]cc1-c1ccnc(NCc2cccc(C(F)(F)F)c2)n1 [Example 89] | > 5.00 | > 5.30 | > 4.82 | > 5.00 |  |  |  | 
Cc1n[nH]cc1-c1ccnc(NCc2ccc3c(c2)OCO3)n1 [Example 102] | > 5.00 | > 5.30 | > 4.82 | > 5.00 |  |  |  | 
CC(C)c1n[nH]cc1-c1ccnc(NC2CN3CCC2CC3)n1 (stereo not drawn) [Example 159] | > 5.30 | > 7.30 | > 5.30 | > 6.30 |  |  |  | 
Cc1n[nH]cc1-c1ccnc(NCCN2CCCCC2)n1 [Example 111] | ≤ 4.82 | > 5.00 | > 4.82 | ≤ 4.82 |  |  |  | 
Cc1n[nH]cc1-c1ccnc(NCCCN(C)C)n1 [Example 118] | ≤ 4.82 | > 4.82 | > 4.82 | ≤ 4.82 |  |  |  | 
Cc1n[nH]cc1-c1ccnc(NCc2ccco2)n1 [Example 122] | ≤ 4.82 | > 5.00 | > 4.82 | ≤ 4.82 |  |  |  | 
CC(C)c1[nH]ncc1-c1ccnc(NCCN2CCCC2)c1 [Example 17] |  |  |  |  | ≤ 4.82 | > 5.30 | > 4.82 | ≤ 4.82
Cc1n[nH]cc1-c1ccnc(NCCCN2CCCC2=O)n1 [Example 131] | ≤ 4.82 | > 4.82 | > 4.82 | ≤ 4.82 |  |  |  | 

SMILES | pIC50 [1, 5] | pIC50 [2, 6] | pIC50 [3, 7] | pIC50 ([4]; Table 2) | pIC50 [1, 8] | pIC50 ([2]; Table 1, read-out: CDK4 HTRF) | pIC50 [3, 9] | pIC50 ([4]; Table 1)
COc1cc(CNc2nccc(-c3c[nH]nc3C)n2)cc(OC)c1 [Example 133] | ≤ 4.82 | > 4.82 | > 4.82 | ≤ 4.82 |  |  |  | 
CC(C)c1n[nH]cc1-c1ccnc(NC2CCc3cc(F)ccc32)n1 (stereo not drawn) [Example 189] | > 6.30 | > 7.00 | > 6.00 | > 6.30 |  |  |  | 
CC(C)c1n[nH]cc1-c1ccnc(NC2CCCc3ccccc32)n1 (stereo not drawn) [Example 169] | > 6.00 | > 7.30 | > 5.30 | > 5.30 |  |  |  | 
CC(C)CNc1nccc(-c2c[nH]nc2C(C)C)n1 [Example 163] | > 7.00 | > 7.00 | > 5.30 | > 6.30 |  |  |  | 
CC(C)c1[nH]ncc1-c1ccnc(NCCCN2CCOCC2)c1 [Example 36] |  |  |  |  | ≤ 4.82 | > 5.00 | > 4.82 | ≤ 4.82
Cc1n[nH]cc1-c1ccnc(NCCC#N)n1 [Example 96] | > 4.82 | > 5.30 | > 4.82 | > 4.82 |  |  |  | 
CC(C)c1[nH]ncc1-c1ccnc(NCCCNC2CCCCC2)c1 [Example 51] |  |  |  |  | ≤ 4.82 | > 5.30 | > 4.82 | ≤ 4.82
CC(C)c1[nH]ncc1-c1ccnc(NCc2ccncc2)c1 [Example 22] |  |  |  |  | > 5.30 | > 5.30 | > 6.30 | > 5.30
CC(C)c1[nH]ncc1-c1ccnc(NCCN2CCCCC2)c1 [Example 31] |  |  |  |  | ≤ 4.82 | > 5.30 | > 4.82 | ≤ 4.82
Cc1n[nH]cc1-c1ccnc(NCC2CCCCC2)n1 [Example 103] | > 5.00 | > 5.30 | > 4.82 | > 5.00 |  |  |  | 
Cc1n[nH]cc1-c1ccnc(NC2CCC2)n1 [Example 101] | > 5.30 | > 6.00 | > 4.82 | > 5.30 |  |  |  | 
Cc1ccc(CNc2nccc(-c3c[nH]nc3C)n2)cc1 [Example 117] | ≤ 4.82 | > 5.00 | > 4.82 | ≤ 4.82 |  |  |  | 
Cc1n[nH]cc1-c1ccnc(NCC(=O)OC(C)(C)C)n1 [Example 129] | ≤ 4.82 | > 4.82 | > 4.82 | ≤ 4.82 |  |  |  | 
CC(C)c1n[nH]cc1-c1ccnc(NCCN(C(C)C)C(C)C)n1 [Example 146] | ≤ 4.82 | > 5.30 | > 4.82 | > 5.30 |  |  |  | 
CCC(Nc1nccc(-c2c[nH]nc2C(C)C)n1)c1ccccc1 (stereo not drawn) [Example 151] | > 5.30 | > 6.30 | > 5.00 | > 6.00 |  |  |  | 
CC(C)c1[nH]ncc1-c1ccnc(NCCC2CCCN2C)c1 (stereo not drawn) [Example 42] |  |  |  |  | ≤ 4.82 | > 5.30 | > 4.82 | ≤ 4.82
CCCCNc1nccc(-c2c[nH]nc2C)n1 [Example 119] | > 5.00 | > 5.30 | > 4.82 | > 5.00 |  |  |  | 
CC(C)c1n[nH]cc1-c1ccnc(NC2CCN(Cc3ccccc3)CC2)n1 [Example 85] | > 6.00 | > 7.30 | > 5.00 | > 6.30 |  |  |  | 
Cc1n[nH]cc1-c1ccnc(NCCN2CCCC2)n1 [Example 109] | ≤ 4.82 | > 5.00 | > 4.82 | ≤ 4.82 |  |  |  | 
COc1cccc(CNc2nccc(-c3c[nH]nc3C)n2)c1 [Example 107] | ≤ 4.82 | > 5.00 | > 4.82 | ≤ 4.82 |  |  |  | 
Cc1n[nH]cc1-c1ccnc(NCc2ccncc2)n1 [Example 104] | > 4.82 | > 5.30 | > 4.82 | > 4.82 |  |  |  | 
